According to patent US6525001B1, “Substituted pyrimidine and pyridine herbicides” (Mid-American Commercialization Corporation, priority 1997, dated 2003):

How the values were obtained:
Test in all cases: Test D
Assay type in all cases: in vivo
[1] = tested on: deadnettle (Lamium amplexicaule); conditions: PREEMERGENCE
rape (Brassica napus) = tested on: rape (Brassica napus); design: key: 0 is no effect; 100 is complete control; conditions: PREEMERGENCE
[2] = tested on: winter barley (Hordeum vulgare); conditions: POSTEMERGENCE
Experimental: (§1) Compounds evaluated in this test were formulated in a non-phytotoxic solvent mixture which included a surfactant and applied to plants that were in the 1- to 4-leaf stage (postemergence application). A mixture of sandy loam soil and greenhouse potting mix in a 60:40 ratio was used for the postemergence test.
(§2) Plantings of these crops and weed species were adjusted to produce plants of appropriate size for the postemergence test. All plant species were grown using normal greenhouse practices. Crop and weed species include alfalfa (Medicago sativa), annual bluegrass (Poa annua), blackgrass (Alopecurus myosuroides), black nightshade (Solanum nigra), chickweed (Stellaria media), common poppy (Papaver rhoeas), deadnettle (Lamium amplexicaule), downy brome (Bromus tectorum), field violet (Viola arvensis), galium 2 (Galium aparine), green foxtail (Setaria viridis), Italian ryegrass (Lolium multiflorum), jointed goatgrass (Aegilops cylindrica), kochia (Kochia scoparia), lambsquarters (Chenopodium album), lentil (Lens culinaris), littleseed canarygrass (Phalaris minor), pea (Pisum sativum), potato (Solanum tuberosum), rape (Brassica napus), redroot pigweed (Amaranthus retroflexus), Russian thistle (Salsola kali), scentless chamomile (Matricaria inodora), sorghum (Sorghum vulgare), spring barley (Hordeum vulgare), sugar beet (Beta vulgaris), sunflower (Helianthus annuus), ivyleaf speedwell (Veronica hederaefolia), spring wheat (Triticum aestivum), winter wheat (Triticum aestivum), wild buckwheat (Polygonum convolvulus), wild mustard (Sinapis arvensis), wild oat (Avena fatua), windgrass (Apera spica-venti) and winter barley (Hordeum vulgare).
(§3) Treated plants and untreated controls were maintained in a greenhouse for approximately 21 to 28 days, after which all treated plants were compared to untreated controls and visually evaluated. Plant response ratings, summarized in Table D, are based upon a 0 to 100 scale where 0 is no effect and 100 is complete control. A dash response (−) means no test result.

[3] = tested on: windgrass (Apera spica-venti); conditions: POSTEMERGENCE
Experimental: as §1, §2, §3

[4] = tested on: Italian ryegrass (Lolium multiflorum); conditions: POSTEMERGENCE
Experimental: as §1, §2, §3

[5] = tested on: spring wheat (Triticum aestivum); conditions: POSTEMERGENCE
Experimental: as §1, §2, §3

[6] = tested on: blackgrass (Alopecurus myosuroides); conditions: POSTEMERGENCE
Experimental: as §1, §2, §3

[7] = tested on: downy brome (Bromus tectorum); conditions: POSTEMERGENCE
Experimental: as §1, §2, §3

[8] = tested on: winter wheat (Triticum aestivum); conditions: PREEMERGENCE
[9] = tested on: wild buckwheat (Polygonum convolvulus); design: key: 0 is no effect; 10 is complete control; conditions: POSTEMERGENCE
Experimental: as §1, §2, §3

[10] = tested on: galium 2 (Galium aparine); design: key: 0 is no effect; 10 is complete control; conditions: POSTEMERGENCE
Experimental: as §1, §2, §3

[11] = tested on: redroot pigweed (Amaranthus retroflexus); design: key: 0 is no effect; 10 is complete control; conditions: POSTEMERGENCE
Experimental: as §1, §2, §3

kochia (Kochia scoparia) = tested on: kochia (Kochia scoparia); design: key: 0 is no effect; 10 is complete control; conditions: POSTEMERGENCE
Experimental: as §1, §2, §3

[12] = tested on: chickweed (Stellaria media); conditions: PREEMERGENCE
[13] = tested on: annual bluegrass (Poa annua); design: key: 0 is no effect; 100 is complete control; conditions: PREEMERGENCE

Cc1cnc(-c2ccc(C(F)(F)F)cc2)nc1Cc1cccc(C(F)(F)F)c1 [Example 1, 5-methyl-2-[4-(trifluoromethyl)phenyl]-4-[[3-(trifluoromethyl)phenyl]methyl]pyrimidine]
Plant response rating, Deadnettle ([1]; Rate 31 g/ha): 60 | Plant response rating, Deadnettle ([1]; Rate 62 g/ha): 65 | Plant response rating, Deadnettle ([1]; Rate 125 g/ha): 85 | Plant response rating, Deadnettle ([1]; Rate 250 g/ha): 90 | Plant response rating, Rape (rape (Brassica napus); Rate 31 g/ha): 30 | Plant response rating, Rape (rape (Brassica napus); Rate 62 g/ha): 75 | Plant response rating, Rape (rape (Brassica napus); Rate 125 g/ha): 100 | Plant response rating, Rape (rape (Brassica napus); Rate 250 g/ha): 100 | Plant response rating, Barley (winter) ([2]; Rate 16 g/ha): 5 | Plant response rating, Barley (winter) ([2]; Rate 31 g/ha): 10 | Plant response rating, Barley (winter) ([2]; Rate 62 g/ha): 10 | Plant response rating, Barley (winter) ([2]; Rate 125 g/ha): 10 | Plant response rating, Windgrass ([3]; Rate 16 g/ha): 5 | Plant response rating, Windgrass ([3]; Rate 31 g/ha): 20 | Plant response rating, Windgrass ([3]; Rate 125 g/ha): 30 | Plant response rating, I. Ryegrass ([4]; Rate 16 g/ha): 5 | Plant response rating, I. Ryegrass ([4]; Rate 31 g/ha): 10 | Plant response rating, I. Ryegrass ([4]; Rate 62 g/ha): 10 | Plant response rating, I. Ryegrass ([4]; Rate 125 g/ha): 10 | Plant response rating, Spring Wheat ([5]; Rate 16 g/ha): 5 | Plant response rating, Spring Wheat ([5]; Rate 31 g/ha): 10 | Plant response rating, Spring Wheat ([5]; Rate 62 g/ha): 10 | Plant response rating, Spring Wheat ([5]; Rate 125 g/ha): 20 | Plant response rating, Blackgrass ([6]; Rate 16 g/ha): 10 | Plant response rating, Blackgrass ([6]; Rate 31 g/ha): 10 | Plant response rating, Blackgrass ([6]; Rate 62 g/ha): 10 | Plant response rating, Blackgrass ([6]; Rate 125 g/ha): 30 | Plant response rating, Downy brome ([7]; Rate 16 g/ha): 2 | Plant response rating, Downy brome ([7]; Rate 31 g/ha): 10 | Plant response rating, Downy brome ([7]; Rate 62 g/ha): 10 | Plant response rating, Downy brome ([7]; Rate 125 g/ha): 10 | Plant response rating, Wheat (winter) ([8]; Rate 31 g/ha): 10 | Plant response rating, Wheat (winter) ([8]; Rate 62 g/ha): 10 | Plant response rating, Wheat (winter) ([8]; Rate 125 g/ha): 20 | Plant response rating, Wheat (winter) ([8]; Rate 250 g/ha): 40 | Plant response rating, Wild buckwheat ([9]; Rate 16 g/ha): 0 | Plant response rating, Wild buckwheat ([9]; Rate 31 g/ha): 0 | Plant response rating, Wild buckwheat ([9]; Rate 62 g/ha): 0 | Plant response rating, Wild buckwheat ([9]; Rate 125 g/ha): 20 | Plant response rating, Galium ([10]; Rate 16 g/ha): 0 | Plant response rating, Galium ([10]; Rate 31 g/ha): 60 | Plant response rating, Galium ([10]; Rate 62 g/ha): 70 | Plant response rating, Galium ([10]; Rate 125 g/ha): 70 | Plant response rating, Redroot pigweed ([11]; Rate 16 g/ha): 0 | Plant response rating, Redroot pigweed ([11]; Rate 31 g/ha): 70 | Plant response rating, Redroot pigweed ([11]; Rate 62 g/ha): 70 | Plant response rating, Redroot pigweed ([11]; Rate 125 g/ha): 50 | Plant response rating, Kochia (kochia (Kochia scoparia); Rate 16 g/ha): 0 | Plant response rating, Kochia (kochia (Kochia scoparia); Rate 31 g/ha): 60 | Plant response rating, Kochia (kochia (Kochia scoparia); Rate 62 g/ha): 80 | Plant response rating, Kochia (kochia (Kochia scoparia); Rate 125 g/ha): 70 | Plant response rating, Chickweed ([12]; Rate 31 g/ha): 55 | Plant response rating, Chickweed ([12]; Rate 62 g/ha): 85 | Plant response rating, Chickweed ([12]; Rate 125 g/ha): 85 | Plant response rating, Chickweed ([12]; Rate 250 g/ha): 90 | Plant response rating, Annual bluegras ([13]; Rate 31 g/ha): 75 | Plant response rating, Annual bluegras ([13]; Rate 62 g/ha): 60 | Plant response rating, Annual bluegras ([13]; Rate 125 g/ha): 100 | Plant response rating, Annual bluegras ([13]; Rate 250 g/ha): 85

Cc1cnc(-n2ccc(C(F)(F)F)n2)nc1Cn1ccc(C(F)(F)F)n1 [Compound 52]
Plant response rating, Deadnettle ([1]; Rate 31 g/ha): 50 | Plant response rating, Deadnettle ([1]; Rate 62 g/ha): 70 | Plant response rating, Deadnettle ([1]; Rate 125 g/ha): 90 | Plant response rating, Rape (rape (Brassica napus); Rate 31 g/ha): 50 | Plant response rating, Rape (rape (Brassica napus); Rate 62 g/ha): 60 | Plant response rating, Rape (rape (Brassica napus); Rate 125 g/ha): 100 | Plant response rating, Barley (winter) ([2]; Rate 16 g/ha): 10 | Plant response rating, Barley (winter) ([2]; Rate 31 g/ha): 10 | Plant response rating, Barley (winter) ([2]; Rate 62 g/ha): 10 | Plant response rating, Barley (winter) ([2]; Rate 125 g/ha): 10 | Plant response rating, Windgrass ([3]; Rate 16 g/ha): 10 | Plant response rating, Windgrass ([3]; Rate 31 g/ha): 10 | Plant response rating, Windgrass ([3]; Rate 62 g/ha): 20 | Plant response rating, Windgrass ([3]; Rate 125 g/ha): 50 | Plant response rating, I. Ryegrass ([4]; Rate 16 g/ha): 5 | Plant response rating, I. Ryegrass ([4]; Rate 31 g/ha): 10 | Plant response rating, I. Ryegrass ([4]; Rate 62 g/ha): 10 | Plant response rating, I. Ryegrass ([4]; Rate 125 g/ha): 10 | Plant response rating, Spring Wheat ([5]; Rate 16 g/ha): 10 | Plant response rating, Spring Wheat ([5]; Rate 31 g/ha): 10 | Plant response rating, Spring Wheat ([5]; Rate 62 g/ha): 10 | Plant response rating, Spring Wheat ([5]; Rate 125 g/ha): 10 | Plant response rating, Blackgrass ([6]; Rate 16 g/ha): 10 | Plant response rating, Blackgrass ([6]; Rate 31 g/ha): 10 | Plant response rating, Blackgrass ([6]; Rate 62 g/ha): 10 | Plant response rating, Blackgrass ([6]; Rate 125 g/ha): 10 | Plant response rating, Downy brome ([7]; Rate 16 g/ha): 10 | Plant response rating, Downy brome ([7]; Rate 31 g/ha): 20 | Plant response rating, Downy brome ([7]; Rate 62 g/ha): 20 | Plant response rating, Downy brome ([7]; Rate 125 g/ha): 20 | Plant response rating, Wheat (winter) ([8]; Rate 31 g/ha): 50 | Plant response rating, Wheat (winter) ([8]; Rate 62 g/ha): 60 | Plant response rating, Wheat (winter) ([8]; Rate 125 g/ha): 60 | Plant response rating, Wild buckwheat ([9]; Rate 16 g/ha): 60 | Plant response rating, Wild buckwheat ([9]; Rate 31 g/ha): 50 | Plant response rating, Wild buckwheat ([9]; Rate 62 g/ha): 70 | Plant response rating, Wild buckwheat ([9]; Rate 125 g/ha): 80 | Plant response rating, Galium ([10]; Rate 16 g/ha): 40 | Plant response rating, Galium ([10]; Rate 31 g/ha): 50 | Plant response rating, Galium ([10]; Rate 62 g/ha): 65 | Plant response rating, Galium ([10]; Rate 125 g/ha): 60 | Plant response rating, Redroot pigweed ([11]; Rate 16 g/ha): 45 | Plant response rating, Redroot pigweed ([11]; Rate 31 g/ha): 60 | Plant response rating, Redroot pigweed ([11]; Rate 62 g/ha): 60 | Plant response rating, Redroot pigweed ([11]; Rate 125 g/ha): 70 | Plant response rating, Kochia (kochia (Kochia scoparia); Rate 16 g/ha): 70 | Plant response rating, Kochia (kochia (Kochia scoparia); Rate 31 g/ha): 70 | Plant response rating, Kochia (kochia (Kochia scoparia); Rate 62 g/ha): 70 | Plant response rating, Kochia (kochia (Kochia scoparia); Rate 125 g/ha): 70 | Plant response rating, Chickweed ([12]; Rate 31 g/ha): 30 | Plant response rating, Chickweed ([12]; Rate 62 g/ha): 80 | Plant response rating, Chickweed ([12]; Rate 125 g/ha): 85 | Plant response rating, Annual bluegras ([13]; Rate 31 g/ha): 50 | Plant response rating, Annual bluegras ([13]; Rate 62 g/ha): 100 | Plant response rating, Annual bluegras ([13]; Rate 125 g/ha): 100

Cc1cnc(-n2cnc(C(F)(F)F)n2)nc1Cn1ccc(C(F)(F)F)n1 [Compound 51]
Plant response rating, Deadnettle ([1]; Rate 31 g/ha): 80 | Plant response rating, Deadnettle ([1]; Rate 62 g/ha): 80 | Plant response rating, Rape (rape (Brassica napus); Rate 31 g/ha): 100 | Plant response rating, Rape (rape (Brassica napus); Rate 62 g/ha): 100 | Plant response rating, Wheat (winter) ([8]; Rate 31 g/ha): 30 | Plant response rating, Wheat (winter) ([8]; Rate 62 g/ha): 55 | Plant response rating, Chickweed ([12]; Rate 31 g/ha): 80 | Plant response rating, Chickweed ([12]; Rate 62 g/ha): 90 | Plant response rating, Annual bluegras ([13]; Rate 31 g/ha): 85 | Plant response rating, Annual bluegras ([13]; Rate 62 g/ha): 100
